The values that follow come from patent US20250115582A1, “MOLECULAR GLUE DEGRADERS AND METHODS OF USING THE SAME” (Monte Rosa Therapeutics, Inc., priority 2022, published 2025).

This assay has as its target T1, CK1a (Homo sapiens, UniProt P48729+Q96SW2).
T1 construct: host or cells: HEK293 and HEK293 CRBN knock-out clone B2 (generated internally)
The assay can be described thus: Western blot assay of CK1a levels in HEK293 and HEK293 CRBN knock-out cells. The note with it: 0.1, 1, 10 μM, 24 hours. Type of assay: cell-based. The protocol:
FIG. 1 depicts effects of Compound 147 on CK1a levels in an HEK293 cell line in comparison to effects of Compound 147 on CK1a levels in a cereblon (CRBN) knock-out HEK293 cell line.
HEK293 cell line was purchased from ATCC (CRL-1573). HEK293 CRBN knock out (k/o) cell line (B2) was generated internally using CRISPR/Cas9 method and clonally expanded. Cells were plated at 2×10^5 cells per well in 6-well tissue culture plates (VWR) in 2 ml of DMEM media (Gibco) containing 10% FBS (Gibco), and incubated for 16 hours at 37° C., 5% CO2. Compounds were added to final concentration of 0.1 μM, 1 μM, 10 μM (DMSO concentration was kept constant at 0.1%), following incubation at 37° C., 5% CO2 for additional 24 hours. Cell lysis was performed using RIPA buffer (Pierce) containing Halt™ Protease Inhibitor Cocktail (ThermoFisher Scientific). Lysates were boiled at 95° C. for 10 minutes and 12 μg of protein lysate per sample was resolved by SDS-PAGE using 12% gels (BioRad) and transferred to nitrocellulose membrane (BioRad). Membranes were blocked using LI-COR blocking buffer (LI-COR) at room temperature for 1 hour, followed by overnight incubation with rabbit anti-CK1a (Abcam ab206652), rabbit anti-CRBN (Sigma HPA045910) and mouse anti-α-tubulin (Sigma T9026) antibodies at 4° C. […]

T1 sequence (P48729 whole entry): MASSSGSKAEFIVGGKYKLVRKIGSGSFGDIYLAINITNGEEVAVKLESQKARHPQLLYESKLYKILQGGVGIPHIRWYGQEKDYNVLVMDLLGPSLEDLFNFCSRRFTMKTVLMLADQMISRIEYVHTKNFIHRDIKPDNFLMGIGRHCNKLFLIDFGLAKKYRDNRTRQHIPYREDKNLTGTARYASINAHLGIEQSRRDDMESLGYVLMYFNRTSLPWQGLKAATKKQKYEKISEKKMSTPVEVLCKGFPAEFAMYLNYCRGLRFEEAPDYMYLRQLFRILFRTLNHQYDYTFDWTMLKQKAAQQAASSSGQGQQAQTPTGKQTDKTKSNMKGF
T1 sequence (Q96SW2 whole entry): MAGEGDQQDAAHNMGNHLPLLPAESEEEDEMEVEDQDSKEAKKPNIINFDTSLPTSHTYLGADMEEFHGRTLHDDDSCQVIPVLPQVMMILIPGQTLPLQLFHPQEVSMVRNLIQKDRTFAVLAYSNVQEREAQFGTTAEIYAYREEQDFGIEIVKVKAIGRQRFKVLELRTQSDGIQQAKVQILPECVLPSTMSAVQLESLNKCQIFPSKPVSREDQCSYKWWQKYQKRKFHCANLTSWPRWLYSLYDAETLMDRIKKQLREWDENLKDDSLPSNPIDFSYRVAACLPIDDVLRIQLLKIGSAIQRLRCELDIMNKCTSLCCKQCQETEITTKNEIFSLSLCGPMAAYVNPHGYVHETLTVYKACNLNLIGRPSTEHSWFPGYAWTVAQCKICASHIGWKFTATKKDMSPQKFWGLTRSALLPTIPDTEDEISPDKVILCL
T1 sequence (Q16531 2-1140 partner limits assumed): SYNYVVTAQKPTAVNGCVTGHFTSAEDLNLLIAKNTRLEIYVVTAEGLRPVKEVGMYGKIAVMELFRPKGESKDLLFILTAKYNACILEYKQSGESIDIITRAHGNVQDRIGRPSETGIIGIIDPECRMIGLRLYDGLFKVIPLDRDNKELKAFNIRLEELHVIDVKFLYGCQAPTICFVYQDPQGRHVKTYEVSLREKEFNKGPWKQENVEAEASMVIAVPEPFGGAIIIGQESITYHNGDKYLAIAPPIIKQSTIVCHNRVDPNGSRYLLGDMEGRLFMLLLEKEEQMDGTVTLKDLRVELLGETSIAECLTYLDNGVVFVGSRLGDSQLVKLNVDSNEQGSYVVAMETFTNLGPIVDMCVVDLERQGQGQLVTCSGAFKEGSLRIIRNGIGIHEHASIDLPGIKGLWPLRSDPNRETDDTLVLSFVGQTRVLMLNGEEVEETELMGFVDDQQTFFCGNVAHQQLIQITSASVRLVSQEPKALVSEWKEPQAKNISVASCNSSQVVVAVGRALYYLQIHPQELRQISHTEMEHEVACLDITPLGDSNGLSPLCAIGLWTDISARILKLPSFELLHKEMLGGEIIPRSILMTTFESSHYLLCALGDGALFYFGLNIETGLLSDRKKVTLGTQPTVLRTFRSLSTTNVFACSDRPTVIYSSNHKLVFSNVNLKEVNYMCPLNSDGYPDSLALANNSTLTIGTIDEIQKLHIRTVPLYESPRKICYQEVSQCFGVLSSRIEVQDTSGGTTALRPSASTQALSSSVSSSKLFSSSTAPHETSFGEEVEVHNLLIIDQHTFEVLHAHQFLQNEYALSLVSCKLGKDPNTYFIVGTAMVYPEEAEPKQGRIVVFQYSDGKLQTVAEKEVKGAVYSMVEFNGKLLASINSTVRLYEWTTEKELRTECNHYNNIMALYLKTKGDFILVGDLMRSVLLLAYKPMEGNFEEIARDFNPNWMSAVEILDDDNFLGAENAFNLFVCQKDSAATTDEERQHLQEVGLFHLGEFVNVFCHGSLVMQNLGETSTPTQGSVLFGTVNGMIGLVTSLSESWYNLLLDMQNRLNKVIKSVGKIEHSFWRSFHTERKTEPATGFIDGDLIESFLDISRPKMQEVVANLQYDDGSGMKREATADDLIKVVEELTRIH

Consider `O=C1CCC(N2Cc3cc(NC(=O)c4ccc(Cl)cc4)ccc3C2=O)C(=O)N1` (centres unmarked) [Compound 147], for which the “CK1a levels in cereblon (CRBN) knock-out HEK293 cell line (Western blot, FIG. 1)” value (HEK293 CRBN knock-out cell line) is recorded as “no effect on CK1a levels”. Further, the “CK1a levels in HEK293 cell line (Western blot, FIG. 1)” value (HEK293 cell line, cereblon present) is “decreases CK1a levels”.
